“And” between values parts separate entries of the source, which are not always exact repeats. Identical values can stand only once. Inconclusive results and toxic doses are left out. How the source made its calls: active means survival T/C of 150% or more; inactive means T/C below 125% in these data.
System: CD2F1 mice, L1210 leukemia ip, survival T/C
Assay: NCI In Vivo Anticancer Drug Screen. Data for tumor model L1210 Leukemia (intraperitoneal) in CD2F1 (CDF1) mice
Conditions: higher = longer survival
In short: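 Each value reflects a quotient of treated over vehicle control outcomes in mice with a transplanted tumor.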

[1] = endpoint: mean survival time, dose: 50.0 mg/kg/injection, schedule: Q04DX002 (ip), vehicle: saline with Tween-80
[2] = endpoint: mean survival time, dose: 100.0 mg/kg/injection, schedule: Q04DX002 (ip), vehicle: saline with Tween-80
[3] = endpoint: mean survival time, dose: 200.0 mg/kg/injection, schedule: Q04DX002 (ip), vehicle: saline with Tween-80
[4] = endpoint: mean survival time, dose: 200.0 mg/kg/injection, schedule: Q01DX001 (ip), vehicle: saline with Tween-80
[5] = endpoint: mean survival time, dose: 400.0 mg/kg/injection, schedule: Q01DX001 (ip), vehicle: saline with Tween-80
[6] = endpoint: mean survival time, dose: 400.0 mg/kg/injection, schedule: Q04DX002 (ip), vehicle: saline with Tween-80
[7] = endpoint: mean survival time, dose: 100.0 mg/kg/injection, schedule: Q01DX009 (ip), vehicle: saline with Tween-80
[8] = endpoint: mean survival time, dose: 100.0 mg/kg/injection, schedule: Q04DX003 (ip), vehicle: saline with Tween-80
[9] = endpoint: mean survival time, dose: 200.0 mg/kg/injection, schedule: Q01DX009 (ip), vehicle: saline with Tween-80
[10] = endpoint: mean survival time, dose: 200.0 mg/kg/injection, schedule: Q04DX003 (ip), vehicle: saline with Tween-80
[11] = endpoint: mean survival time, dose: 400.0 mg/kg/injection, schedule: Q01DX009 (ip), vehicle: saline with Tween-80

Measured: T/C

O=C(c1ccccc1)N(C(=O)c1ccccc1)c1cccc(N(C(=O)c2ccccc2)C(=O)c2ccccc2)n1
inactive: [1] 101 % of control | [2] 97 % of control | [3] 93 % of control

CCCCCCCCCCCCCCOc1ccc(OCCCCCCCCCCC)cc1
inactive: [4] 89 % of control | [5] 89 % of control

CS(=O)(=O)OCC1OC(n2ccc(NC(=O)c3ccccc3)nc2=O)CC1OS(C)(=O)=O (configuration not stated)
inactive: endpoint: median survival time, dose: 12.5 mg/kg/injection, schedule: Q01DX005 (ip), vehicle: saline with Tween-80 108 % of control | endpoint: median survival time, dose: 25.0 mg/kg/injection, schedule: Q01DX005 (ip), vehicle: saline with Tween-80 100 % of control | endpoint: median survival time, dose: 50.0 mg/kg/injection, schedule: Q01DX005 (ip), vehicle: saline with Tween-80 107 % of control | endpoint: median survival time, dose: 100.0 mg/kg/injection, schedule: Q01DX005 (ip), vehicle: saline with Tween-80 103 % of control | endpoint: median survival time, dose: 200.0 mg/kg/injection, schedule: Q01DX005 (ip), vehicle: saline with Tween-80 97 % of control

O=P(OCCCO)(N1CC1)N1CC1
inactive: endpoint: mean survival time, dose: 25.0 mg/kg/injection, schedule: Q01DX001 (ip), vehicle: other 101 % of control | endpoint: mean survival time, dose: 50.0 mg/kg/injection, schedule: Q01DX001 (ip), vehicle: other 101 % of control | endpoint: mean survival time, dose: 100.0 mg/kg/injection, schedule: Q01DX001 (ip), vehicle: other 102 % of control | endpoint: mean survival time, dose: 200.0 mg/kg/injection, schedule: Q01DX001 (ip), vehicle: other 98 % of control | endpoint: mean survival time, dose: 400.0 mg/kg/injection, schedule: Q01DX001 (ip), vehicle: other 96 % of control

CC1OC(c2cnn(-c3ccccc3)n2)C(O)C1O (configuration not stated)
inactive: endpoint: median survival time, dose: 12.5 mg/kg/injection, schedule: Q01DX005 (ip), vehicle: water 103 % of control | endpoint: median survival time, dose: 25.0 mg/kg/injection, schedule: Q01DX005 (ip), vehicle: water 102 % of control | endpoint: median survival time, dose: 50.0 mg/kg/injection, schedule: Q01DX005 (ip), vehicle: water 103 % of control | endpoint: median survival time, dose: 100.0 mg/kg/injection, schedule: Q01DX005 (ip), vehicle: water 100 % of control | endpoint: median survival time, dose: 200.0 mg/kg/injection, schedule: Q01DX005 (ip), vehicle: water 103 % of control

CCCCCCCCCSCCOC(=S)N(C)C
inactive: [2] 93 % of control | [3] 93 % of control | [6] 93 % of control

CCCCCCCCCCCCCCCC1CCCC(C)N1 (configuration not stated)
inactive: [1] 90 % of control and 105 % of control | [2] 87 % of control | [3] 87 % of control

Cc1cc(C)c(NC(=O)c2cccc(Cl)c2)c(C)c1
inactive: [7] 104 % of control | [8] 94 % of control | [9] 98 % of control | [10] 96 % of control | [11] 105 % of control | endpoint: mean survival time, dose: 400.0 mg/kg/injection, schedule: Q04DX003 (ip), vehicle: saline with Tween-80 88 % of control

CCN(CC)CCC(O)c1ccc2c3ccccc3n(C)c2c1 (configuration not stated)
inactive: [2] 109 % of control

C=CN
inactive: endpoint: mean survival time, dose: 25.0 mg/kg/injection, schedule: Q04DX002 (ip), vehicle: saline with Tween-80 95 % of control | [1] 106 % of control | [2] 98 % of control | [3] 98 % of control

C[N+](C)(C)CCCCC[N+](C)(C)C
inactive: endpoint: mean survival time, dose: 6.25 mg/kg/injection, schedule: Q01DX009 (ip), vehicle: saline sonified 93 % of control | endpoint: mean survival time, dose: 6.25 mg/kg/injection, schedule: Q04DX003 (ip), vehicle: saline 103 % of control | endpoint: mean survival time, dose: 12.5 mg/kg/injection, schedule: Q01DX009 (ip), vehicle: saline sonified 90 % of control | endpoint: mean survival time, dose: 12.5 mg/kg/injection, schedule: Q04DX003 (ip), vehicle: saline 95 % of control | endpoint: mean survival time, dose: 25.0 mg/kg/injection, schedule: Q01DX009 (ip), vehicle: saline sonified 93 % of control | endpoint: mean survival time, dose: 25.0 mg/kg/injection, schedule: Q01DX009 (ip), vehicle: saline with Tween-80 100 % of control | endpoint: mean survival time, dose: 25.0 mg/kg/injection, schedule: Q04DX003 (ip), vehicle: saline 101 % of control | endpoint: mean survival time, dose: 50.0 mg/kg/injection, schedule: Q01DX009 (ip), vehicle: saline with Tween-80 108 % of control | [7] 103 % of control | [8] 86 % of control

COc1cc([N+](=O)[O-])ccc1NC(=O)NCc1ccccc1
inactive: [1] 89 % of control and 94 % of control | [7] 100 % of control | [2] 88 % of control and 96 % of control and 97 % of control | [9] 95 % of control | [3] 93 % of control and 105 % of control | [11] 103 % of control | [6] 93 % of control

O=C(O)c1cccc2[nH][nH]c(=O)c12
inactive: endpoint: mean survival time, dose: 100.0 mg/kg/injection, schedule: Q01DX001 (ip), vehicle: saline with Tween-80 100 % of control | [7] 101 % of control | [4] 102 % of control | [9] 100 % of control | [5] 100 % of control | [11] 98 % of control

CN(C)c1ccc(C(=O)CCN2CC=C(c3ccccc3)CC2)cc1
inactive: [2] 102 % of control

CCC[CH2][Sn]1([CH2]CCC)[O]C2C(CO)OC(n3ccc(N)nc3=O)C2[O]1 (configuration not stated)
inactive: endpoint: mean survival time, dose: 0.78 mg/kg/injection, schedule: Q01DX009 (ip), vehicle: Klucel (hydroxypropylcellulose) (HPC) 116 % of control | endpoint: mean survival time, dose: 1.56 mg/kg/injection, schedule: Q01DX005 (ip), vehicle: other 104 % of control | endpoint: mean survival time, dose: 1.56 mg/kg/injection, schedule: Q01DX009 (ip), vehicle: Klucel (hydroxypropylcellulose) (HPC) 113 % of control | endpoint: mean survival time, dose: 3.13 mg/kg/injection, schedule: Q01DX005 (ip), vehicle: other 104 % of control | endpoint: mean survival time, dose: 6.25 mg/kg/injection, schedule: Q01DX005 (ip), vehicle: other 113 % of control | endpoint: mean survival time, dose: 6.25 mg/kg/injection, schedule: Q01DX009 (ip), vehicle: Klucel (hydroxypropylcellulose) (HPC) 115 % of control

NC(CSC1(c2ccc(Cl)cc2)c2ccccc2-c2ccccc21)C(=O)O (configuration not stated)
inactive: endpoint: mean survival time, dose: 25.0 mg/kg/injection, schedule: Q01DX009 (ip), vehicle: saline 100 % of control | endpoint: mean survival time, dose: 50.0 mg/kg/injection, schedule: Q01DX009 (ip), vehicle: saline 96 % of control | endpoint: mean survival time, dose: 100.0 mg/kg/injection, schedule: Q01DX009 (ip), vehicle: saline 96 % of control

COc1ncn(C2CC(OC(=O)c3ccc(C)cc3)C(COC(=O)c3ccc(C)cc3)O2)c(=O)n1 (configuration not stated)
inactive: [10] 86 % of control

CCOC(=O)c1ncc(Cl)cc1N
inactive: endpoint: mean survival time, dose: 50.0 mg/kg/injection, schedule: Q01DX009 (ip), vehicle: Klucel (hydroxypropylcellulose) (HPC) 97 % of control

CN(C)C(=O)C(Cc1c[nH]c2ccccc12)NC(=O)c1ccccc1 (configuration not stated)
inactive: [2] 95 % of control | [3] 103 % of control | [6] 98 % of control

COc1ccc(NC(=O)Nc2ccc(OC)cc2OC)cc1
inactive: [2] 86 % of control | [3] 90 % of control | [6] 86 % of control

CCOC(=O)Nc1n[nH]c(=S)[nH]c1=O
inactive: endpoint: mean survival time, dose: 100.0 mg/kg/injection, schedule: Q01DX001 (ip), vehicle: carboxymethylcellulose (CMC) 96 % of control | endpoint: mean survival time, dose: 200.0 mg/kg/injection, schedule: Q01DX001 (ip), vehicle: carboxymethylcellulose (CMC) 100 % of control | endpoint: mean survival time, dose: 400.0 mg/kg/injection, schedule: Q01DX001 (ip), vehicle: carboxymethylcellulose (CMC) 96 % of control

CC(C)(C)CC(C)(C)c1ccc(O)c(O)c1
inactive: endpoint: mean survival time, dose: 25.0 mg/kg/injection, schedule: Q04DX003 (ip), vehicle: saline with Tween-80 101 % of control | endpoint: mean survival time, dose: 50.0 mg/kg/injection, schedule: Q04DX003 (ip), vehicle: saline with Tween-80 93 % of control | [8] 96 % of control

O=[N+]([O-])c1ccc2ncccc2c1
inactive: endpoint: mean survival time, dose: 25.0 mg/kg/injection, schedule: Q01DX009 (ip), vehicle: other 101 % of control | endpoint: mean survival time, dose: 50.0 mg/kg/injection, schedule: Q01DX009 (ip), vehicle: other 105 % of control | endpoint: mean survival time, dose: 100.0 mg/kg/injection, schedule: Q01DX009 (ip), vehicle: other 104 % of control

CC(C)CCCCCCCCCCCCC(=O)NCC(=O)NC1C(C)OC(Nc2ncnc3nc[nH]c23)C(O)C1O (configuration not stated)
inactive: endpoint: mean survival time, dose: 0.25 mg/kg/injection, schedule: Q01DX009 (ip), vehicle: distilled water + Tween-80 100 % of control and 102 % of control | endpoint: mean survival time, dose: 0.5 mg/kg/injection, schedule: Q01DX009 (ip), vehicle: distilled water + Tween-80 96 % of control and 100 % of control | endpoint: mean survival time, dose: 1.0 mg/kg/injection, schedule: Q01DX009 (ip), vehicle: distilled water + Tween-80 96 % of control and 104 % of control | endpoint: mean survival time, dose: 2.0 mg/kg/injection, schedule: Q01DX009 (ip), vehicle: distilled water + Tween-80 98 % of control and 107 % of control | endpoint: mean survival time, dose: 4.0 mg/kg/injection, schedule: Q01DX009 (ip), vehicle: distilled water + Tween-80 96 % of control and 106 % of control | endpoint: mean survival time, dose: 8.0 mg/kg/injection, schedule: Q01DX009 (ip), vehicle: distilled water + Tween-80 94 % of control and 102 % of control

CCOc1ccncc1[N+](=O)[O-]
inactive: endpoint: mean survival time, dose: 100.0 mg/kg/injection, schedule: Q01DX009 (ip), vehicle: saline sonified 96 % of control | endpoint: mean survival time, dose: 100.0 mg/kg/injection, schedule: Q04DX003 (ip), vehicle: saline sonified 95 % of control | endpoint: mean survival time, dose: 200.0 mg/kg/injection, schedule: Q04DX003 (ip), vehicle: saline sonified 95 % of control | endpoint: mean survival time, dose: 400.0 mg/kg/injection, schedule: Q04DX003 (ip), vehicle: saline sonified 86 % of control
